1 molecule from US20060135588A1, “Preventive and/or therapeutic drugs for inflammatory intestinal diseases” (priority 2002, published 2006) can be followed below.

Common to all, as to assay type: in vivo, Sprague-Dawley male rats
Assay [1] deals with Dextran sulfate sodium (DSS)-induced colitis. Briefly: Evaluation of DSS-induced colitis by naked eyes (wet weight of large intestine, injured mucosa area). The settings on record: all groups: 1, 5 and 20 mg/kg/day s.c., 8 days of 4% DSS diet. On the procedure: (§1) The edaravone as synthesized above was dissolved in a small amount of 1 N sodium hydroxide solution. Thereafter, the pH thereof was adjusted to be around neutral.
(§2) 6-week-old Sprague-Dawley male rats (Clea Japan, Inc.) were used. According to the method described in the previous report (Araki Y. et al., Scand J Gastroentero, 35, 1060-1067, 2000), colitis was induced to develop in the rats as follows. That is to say, 4% (w/w) dextran sulfate sodium (DSS; molecular weight: 5,000; Wako Pure Chemical Industries, Ltd., Osaka) was added to a powder diet MF (Oriental Yeast Co., Ltd.). The rats were fed with the thus obtained mixed diet at an amount of 30 g/day/rat for 8 days. […]
8 days later, the rats were subjected to anatomy. […] Thereafter, the large intestine (the colon and the rectum) was excised, and the wet weight of the organ was measured. The degree of the injured large intestinal mucosa was evaluated by naked eyes according to the method described in the previous report (Araki Y. et al., Scand J Gastroentero, 35, 1060-1067, 2000). That is, the areas of portions, on which a change in the color tone of the mucosa (redness), an attachment of blood clots, a collapse of mucosal wall area, edema, or erosion were observed, were measured. […]

The test system is the same in assay [2]. As to the kind of experiment: Histological evaluation of DSS-induced colitis (damage score). The settings on record: 8 days DSS; for damage score vs control group: FIG. 3(A). On the procedure:
as §1
(§3) 6-week-old Sprague-Dawley male rats (Clea Japan, Inc.) were used. According to the method described in the previous report (Araki Y. et al., Scand J Gastroentero, 35, 1060-1067, 2000), colitis was induced to develop in the rats as follows. That is to say, 4% (w/w) dextran sulfate sodium (DSS; molecular weight: 5,000; Wako Pure Chemical Industries, Ltd., Osaka) was added to a powder diet MF (Oriental Yeast Co., Ltd.). The rats were fed with the thus obtained mixed diet at an amount of 30 g/day/rat for 8 days. With regard to edaravone administration groups, from immediately after initiation of the administration of DSS, edaravone was subcutaneously injected into the back of each rat, at a dose of 1 mg/kg/day, 5 mg/kg/day, or 20 mg/kg/day, which was dividedly administered in the morning and evening. With regard to a control group, a normal saline solution was subcutaneously injected into the back of each rat in the same above manner.
The mucosa located at 5 mm from the anus side was fixed with a Carnoy's fluid for 3 hours, and was then embedded in paraffin. Thereafter, a tissue fragment with a thickness of 5 μm was prepared, followed by hematoxylin-eosin staining. Scoring of colitis was conducted in accordance with the method described in the previous report (Araki Y. et al., Scand J Gastroentero, 35, 1060-1067, 2000). Namely, the degree and size of each of the following 3 items: (i) the absence of the mucosal epithelium, (ii) deformation of crypts, and (iii) the level of infiltration of inflammatory cells, are expressed in the following point system: 0: none; 1: slight and localized; 2: moderate and localized; 3: moderate and broad; and 4: severe and broad. The total points regarding the above 3 items were summed up, and the obtained value was defined as the histological colitis score (damage score) of a rat.
The results are shown as mean±SEM. The comparison between groups was carried out by Fisher's PLSD Test. […]

Assay [3] relates to myeloperoxidase activity in the large intestinal mucosa. As to the kind of experiment: Myeloperoxidase activity in large intestinal mucosa of rats with DSS-induced colitis. The settings on record: 8 days DSS, FIG. 3(B). On the procedure:
as §1, §2
Myeloperoxidase activity used as an indicator of inflammation in the large intestinal mucosa was measured by the method described in the previous report (Araki Y. et al., Clin Exp Immunol, 119, 264-269, 2000). […] The activity of the obtained homogenate was observed as a change in the absorbance at 460 nm obtained as a result of the reaction of H2O2 with o-dianisidin.
Hyperoxidation of lipids is an important mechanism regarding tissue injury. […] Accordingly, the concentrations of MDA and 4-HNE in the large intestinal mucosa were measured, and the obtained values were used as indicators of the state of reactive oxygen species (ROS) in tissues (Matsumura N. et al., Pancreas, 22, 53-7, 2001). […]

Assay [4] relates to MDA and 4-HNE in the large intestinal mucosa. Briefly: Concentrations of MDA and 4-HNE in large intestinal mucosa of rats with DSS-induced colitis. The settings on record: all groups: 1, 5 and 20 mg/kg/day s.c., 8 days DSS; no significant differences among the administration groups; FIG. 4(A). As to the method:
as §1, §2
Hyperoxidation of lipids is an important mechanism regarding tissue injury. […] Accordingly, the concentrations of MDA and 4-HNE in the large intestinal mucosa were measured, and the obtained values were used as indicators of the state of reactive oxygen species (ROS) in tissues (Matsumura N. et al., Pancreas, 22, 53-7, 2001). That is, the large intestinal mucosa was homogenized with 9 times its volume of 50 mmol/l Tris-buffer (pH 8.0) containing 0.5% Triton X-100, and the concentrations were measured using an assay kit, Lipid peroxidation assay kit (Calbiochem, La Jolla, Calif., U.S.A.). […]

Assay [5] has as its system interleukin-6 in the plasma. Briefly: Concentration of interleukin-6 in plasma of rats with DSS-induced colitis (ELISA). The settings on record: 8 days DSS, FIG. 4(B). On the procedure: as §1
as §3, with “With regard to a control group, a normal saline solution was subcutaneously injected into the back of each rat in the same above manner.” left out
The concentration of interleukin-6 in the plasma was measured as an indicator of a systemic inflammatory reaction. That is to say, the blood was centrifuged at 10,000 rpm, and then the concentration of interleukin-6 in the plasma was measured by the ELISA method (Rat IL-6 ELISA KIT, BioSource Europe, S.A., Belgium). […]

Where [6] appears, read: all groups: 1, 5 and 20 mg/kg/day s.c.

Turning to `CC1=NN(c2ccccc2)C(=O)C1` [edaravone, 3-methyl-1-phenyl-2-pyrazolin-5-one], the “injured mucosa area vs control group” value in assay [1] (FIG. 1(B)) is listed as “significantly smaller”. Further, the “wet weight of the large intestine vs control group” value in assay [1] (divided morning and evening, FIG. 1(A)) is “significantly lower”. Moreover, the “damage score vs control group” value in assay [2] (20 mg/kg/day s.c.) is listed as “significantly lower”; in assay [2] (setting [6]), “lower”. For the same molecule, the “edema formed in the submucosal layer and infiltration of inflammatory cells (large intestine tissue image)” value in assay [2] (1, 5 and 20 mg/kg/day s.c., hematoxylin-eosin, FIG. 2) is on record as “suppressed”. In addition, the entries for the “myeloperoxidase activity in the large intestinal mucosa vs control group” value in assay [3] (20 mg/kg/day s.c.) and in assay [3] (setting [6]) were “significantly lower” and “lower”, respectively. Further, the “concentrations of MDA and 4-HNE in the large intestinal mucosa vs control group” value in assay [4] is on record as “lower”. The “concentration of IL-6 in the plasma vs control group” value was “significantly lower” in assay [5] (20 mg/kg/day s.c.) and “lower” in assay [5] (setting [6]).
